Assay [1] has as its system Mixed planktonic populations of P. aeruginosa, E. coli, S. epidermidis, and S. mutans. Nature of the assay: Microbial population shift assay. Particulars: 10 μM peptide, 24 h. In kind it is cell-based. How it is done: Peptide (10 μM) or mock-treatment (1× PBS) was then added and samples were incubated at 37° C. for 24 h under anaerobic conditions (80% N2, 15% CO2, 5% H2). […] Plates were then incubated 37° C. under aerobic conditions (TH plates were incubated anaerobically) and colonies counted after 24 h to determine survivors. […] Gram stains and direct microscopic observation (from select isolated colonies) were undertaken to confirm species identity (data not shown). The detection limit of the assay was 200 cfu/mL.

Assay [2] deals with S. mutans. Nature of the assay: Post-antibiotic effect assay (growth retardation after 10 min exposure). In kind it is cell-based, Streptococcus mutans. The following applies: S. mutans monoculture, peptide 10 min, then fresh medium. How it is done:
The activity and selectivity of MH-STAMPs after a 10 min incubation was determined by growth retardation experiments against targeted and untargeted bacteria in monocultures, as described previously (Id.). Cells from overnight cultures were diluted to ˜5×10^6 cfu/mL in MH (or TH with 1% sucrose for S. mutans), normalized by OD600 0.05-0.1 and seeded to 96-well plates. Cultures were then grown under the appropriate conditions for 2 h (3 h for S. mutans) prior to the addition of peptides for 10 min. Plates were then centrifuged at 3000×g for 5 min, the supernatants discarded, fresh medium returned (MH or TH without sucrose for S. mutans), and incubation resumed. Bacterial growth after treatment was then monitored over time by OD600.

Assay [3] has as its system S. pneumoniae. Kind of assay: Kill or inhibit growth/proliferation; morphology, biofilm and growth disruption (Tables 5, 6). In kind it is cell-based, Streptococcus pneumoniae. The arrangement: key: A: Peptide aggregates; B: Less hyphal formation; Clumps; Diffuse clumps and small polyps; F: Diffuse growth; H: Thin; I: Growth inhibition; Microcolony formation; Rippled; Small polyps; Thick; W: Halo formation on top, microlonies on bottom.

For assay [4], the system named is E. coli. In kind it is cell-based, Escherichia coli. The following applies: E. coli. How it is done:
(§1) Typically, the in vitro antimicrobial activity of antimicrobial agents is tested using standard NCCLS bacterial inhibition assays, or MIC tests (see, National Committee on Clinical Laboratory Standards “Performance Standards for Antimicrobial Susceptibility Testing,” NCCLS Document M100-S5 Vol. 14, No. 16, December 1994; “Methods for dilution antimicrobial susceptibility test for bacteria that grow aerobically-Third Edition,” Approved Standard M7-A3, National Committee for Clinical Standards, Villanova, Pa.).
(§2) Briefly, ˜1×10^5 cfu/mL bacteria were diluted in TH (S. mutans), or Mueller-Hinton (MH) broth (all other organisms) and distributed to 96-well plates. Serially-diluted (2-fold) peptides were then added and the plates incubated at 37° C. for 18-24 h. […] All experiments were conducted 10 times.

For another assay, the system named is microorganisms. Nature of the assay: Peptides having multiple activities (targeting/binding, antimicrobial, growth or phenotype altering). An excerpt: In certain embodiments, peptides described herein can have multiple activities. Thus for example, a peptide can have both binding/targeting activity and antimicrobial activity. Such peptides can be used, e.g., in a chimeric construct, for any or all of these properties. Thus, for example, a peptide designated “B” in Table 8 can be used as a targeting peptide. If it is also designated G or M it can also be used for antimicrobial activity.

For assay [5], the system named is S. epidermidis. Nature of the assay: Kill or inhibit growth/proliferation; morphology, biofilm and growth disruption (Tables 5, 6). In kind it is cell-based, Staphylococcus epidermidis. The arrangement: key: A: Peptide aggregates; B: Less hyphal formation; Clumps; Diffuse clumps and small polyps; F: Diffuse growth; H: Thin; I: Growth inhibition; Microcolony formation; Rippled; Small polyps; Thick; W: Halo formation on top, microlonies on bottom.

The test system of assay [6] is S. pneumoniae. Nature of the assay: MIC (broth microdilution). In kind it is cell-based, Streptococcus pneumoniae. How it is done:
as §1, §2
On the technique in general: Broth dilution looks for growth in wells or tubes with falling amounts of substance.

The subject of assay [7] is S. mutans. In kind it is cell-based, Streptococcus mutans. The following applies: S. mutans.
For assay [8], the system named is MRSA. Nature of the assay: MIC (broth microdilution). In kind it is cell-based, Methicillin-resistant Staphylococcus aureus. An outline of the steps:
(§3)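 Ten repeat experiments used NCCLS dilution susceptibility testing: MH broth, ˜1×10^5 cfu/mL starting density, 2-fold peptide titration, 18-24 h incubation at 37° C.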

In assay [9] the test system is MRSA. Nature of the assay: Kill or inhibit growth/proliferation; morphology, biofilm and growth disruption (Tables 5, 6). Details: key: A: Peptide aggregates; B: Less hyphal formation; Clumps; Diffuse clumps and small polyps; F: Diffuse growth; H: Thin; I: Growth inhibition; Microcolony formation; Rippled; Small polyps; Thick; W: Halo formation on top, microlonies on bottom. In kind it is cell-based, Methicillin-resistant Staphylococcus aureus.

Assay [10] has as its system S. mutans. The description is as above. In kind it is cell-based, Streptococcus mutans. Details: key: A: Peptide aggregates; B: Less hyphal formation; Clumps; Diffuse clumps and small polyps; F: Diffuse growth; H: Thin; I: Growth inhibition; Microcolony formation; Rippled; Small polyps; Thick; W: Halo formation on top, microlonies on bottom.
A further assay deals with C. albicans. Described as above. In kind it is cell-based, Candida albicans. Details: key: A: Peptide aggregates; B: Less hyphal formation; Clumps; Diffuse clumps and small polyps; F: Diffuse growth; H: Thin; I: Growth inhibition; Microcolony formation; Rippled; Small polyps; Thick; W: Halo formation on top, microlonies on bottom.
Assay [11] deals with S. epidermidis. In kind it is cell-based, Staphylococcus epidermidis. Particulars: S. epidermidis. How it is done: as §1, §2
The subject of assay [12] is B. subtilis. Nature of the assay: MIC (broth microdilution). In kind it is cell-based, Bacillus subtilis. The method, boiled down:
as §3

Another assay concerns M. luteus. Nature of the assay: Kill or inhibit growth/proliferation; morphology, biofilm and growth disruption (Tables 5, 6). In kind it is cell-based, Micrococcus luteus. The arrangement: key: A: Peptide aggregates; B: Less hyphal formation; Clumps; Diffuse clumps and small polyps; F: Diffuse growth; H: Thin; I: Growth inhibition; Microcolony formation; Rippled; Small polyps; Thick; W: Halo formation on top, microlonies on bottom.

In a further assay the test system is C. jejuni. The description is as above. Details: key: A: Peptide aggregates; B: Less hyphal formation; Clumps; Diffuse clumps and small polyps; F: Diffuse growth; H: Thin; I: Growth inhibition; Microcolony formation; Rippled; Small polyps; Thick; W: Halo formation on top, microlonies on bottom. In kind it is cell-based, Campylobacter jejuni.
In another assay the test system is A. baumannii. Nature of the assay: MIC (broth microdilution). In kind it is cell-based, Acinetobacter baumannii. How it is done:
as §1, §2

The subject of assay [13] is microorganisms (e.g., bacteria, yeasts, fungi). Kind of assay: Targeting peptide binding to target microorganisms (Table 3). The following applies: microorganism the targeting peptide binds; binding in aqueous buffers varied by peptide solubility, preferably 1x PBS.
In assay [14] the test system is B. subtilis. Nature of the assay: Kill or inhibit growth/proliferation; morphology, biofilm and growth disruption (Tables 5, 6). In kind it is cell-based, Bacillus subtilis. The arrangement: key: A: Peptide aggregates; B: Less hyphal formation; Clumps; Diffuse clumps and small polyps; F: Diffuse growth; H: Thin; I: Growth inhibition; Microcolony formation; Rippled; Small polyps; Thick; W: Halo formation on top, microlonies on bottom.

Assay [15] relates to E. coli. The assay is described as above. In kind it is cell-based, Escherichia coli. Details: key: A: Peptide aggregates; B: Less hyphal formation; Clumps; Diffuse clumps and small polyps; F: Diffuse growth; H: Thin; I: Growth inhibition; Microcolony formation; Rippled; Small polyps; Thick; W: Halo formation on top, microlonies on bottom.
A further assay concerns E. faecalis. Described as above. In kind it is cell-based, Enterococcus faecalis. The arrangement: key: A: Peptide aggregates; B: Less hyphal formation; Clumps; Diffuse clumps and small polyps; F: Diffuse growth; H: Thin; I: Growth inhibition; Microcolony formation; Rippled; Small polyps; Thick; W: Halo formation on top, microlonies on bottom.
Assay [16] has as its system S. mutans. Kind of assay: Anti-S. mutans STAMP activity in vitro, also in formulations. In kind it is cell-based, Streptococcus mutans.

Bridge positions count the residues as written; N and C are the ends. Square brackets hold non-standard residues; d marks the D form. Ends that are not written are not given here. Peptide text beside a SMILES is read from it. I, II: the chains in the order shown. Aoc = NCCCCCCCC(=O)O

Take `CC[C@H](C)[C@H](NC(=O)[C@H](Cc1ccccc1)NC(=O)CCCCCCCNC(=O)[C@H](CCCCNC(=O)CNC(=O)CNC(=O)CNC(=O)[C@H](C)NC(=O)[C@H](CCC(=O)O)NC(=O)[C@H](CC(N)=O)NC(=O)[C@H](C)NC(=O)[C@H](C)NC(=O)[C@@H](N)CC(=O)O)NC(=O)CNC(=O)CNC(=O)CNC(=O)[C@H](CCCNC(=N)N)NC(=O)[C@H](CC(N)=O)NC(=O)[C@H](CC(C)C)NC(=O)[C@H](Cc1ccccc1)NC(=O)[C@H](CCCNC(=N)N)NC(=O)[C@H](Cc1ccccc1)NC(=O)[C@H](Cc1ccccc1)NC(=O)[C@@H](NC(C)=O)[C@@H](C)O)C(=O)N[C@@H](CCCNC(=N)N)C(=O)N[C@@H](CCCCN)C(=O)N[C@@H](Cc1ccccc1)C(=O)N[C@@H](CC(C)C)C(=O)N[C@@H](CCCCN)C(=O)N[C@@H](CCCCN)C(=O)N[C@@H](Cc1c[nH]c2ccccc12)C(=O)N[C@@H](CC(C)C)C(=O)N[C@@H](CC(C)C)C(N)=O` [M8(BL)-20] (I: Ac-TFFRFLNRGGGK[Aoc]FIRKFLKKWLL-NH2 / II: H-DAANEAGGG; amide I:12-II:C): the “recoverable (surviving) cfu/mL” value was “not affected or affected to a lesser extent” in [1] (E. coli in mixed culture), “not affected or affected to a lesser extent” in assay [1] (P. aeruginosa in mixed culture), “not affected or affected to a lesser extent” in assay [1] (S. epidermidis in mixed culture) and “greatly reduced compared to input cfu/mL” in assay [1] (S. mutans in mixed culture). The “bacterial growth (OD600) after treatment” value in the assay on S. mutans [2] was “effectively retarded”.

As to “FESKILNASKELDKEKKVNTALSFNSHQDFAKAYQNGKI [PF-606]”, the “Organism, effect” value in the assay with S. pneumoniae [3] is “S. pneumoniae (H)”; with S. epidermidis [5], “S. epidermidis (I)”; in the assay on MRSA [9] it was “MRSA (I)”; with S. mutans [10], “S. mutans (I)”; in the assay on C. albicans, “C. albicans (B)”. The MIC entry in the assay with E. coli [4] is “E. coli, 50 μM”; against S. pneumoniae [6], “S. pneumoniae, 50 μM”; with S. mutans [7], “S. mutans, 50 μM”; in the assay on MRSA [8], “MRSA , 50 μM”; in the assay with S. epidermidis [11] it was “S. epidermidis, 50 μM”. In addition, the Activities entry in the assay on microorganisms is “G M”.

As for MGIIAGIIKFIKGLIEKFTGK [PF-006], the “Organism, effect” value is on record as “S. pneumoniae (R)” in the assay with S. pneumoniae [3]; “S. epidermidis (D)” with S. epidermidis [5]; “M. luteus (A)” in the assay with M. luteus; “MRSA (I)” in the assay with MRSA [9]; “C. jejuni (D)” in the assay on C. jejuni; “B. subtilis (I)” with B. subtilis [14]. Moreover, the MIC result is on record as “B. subtilis, 25 μM” in the assay with B. subtilis [12]; “MRSA , 50 μM” in the assay on MRSA [8]; “A. baumannii, 50 μM” against A. baumannii. Moreover, the Activities entry with microorganisms is listed as “G B M”. Moreover, the “Target(s)” value in [13] was “S. epidermidis and M. luteus and E. coli and P. aeruginosa and MRSA and E. faecalis and C. jeikeium and C. jejuni”.

SKFKVLRKIIIKEYKGELMLSIQKQR [PF-530]: the “Organism, effect” value in the assay on S. pneumoniae [3] is listed as “S. pneumoniae (R)”; in the assay with S. epidermidis [5], “S. epidermidis (H)”; in the assay on E. coli [15] it was “E. coli (R)”; with MRSA [9] it was “MRSA (C)”; with E. faecalis it was “E. faecalis (C)”. Besides, in the assay on microorganisms, the Activities entry is given as “G M”. Also, in the assay with A. baumannii, the MIC result was “A. baumannii, 25 μM”.

Consider “TFFRLFNRSFTQALGKGGGKNLRIIRKGIHIIKKY* (not fully specified (C-terminus); printed as TFFRLFNRSFTQALGKGGGKNLRIIRKGIHIIKKY*) [Peptide C16G2]”, for which, in the assay with S. mutans [16] (PBS formulations 0.5× to about 2.5× PBS), the “PBS strength at activity optimum” value is on record as “about 1 × PBS”. Further, the anti-S. mutans activity result with S. mutans [16] (phosphate buffered saline (PBS) formulation) was “active”; with S. mutans [16] (water-based salt-free buffers and nanoemulsions), “substantially inactive”.

As for “TKKIELKRFVDAFVKKSYENYILERELKKLIKAINEELPTK [PF-600]”, the “Organism, effect” value in the assay on S. pneumoniae [3] is “S. pneumoniae (R)”; with S. epidermidis [5], “S. epidermidis (C)”; with E. coli [15], “E. coli (H)”; with M. luteus, “M. luteus (C)”; in the assay with MRSA [9], “MRSA (M)”; in the assay with S. mutans [10] it was “S. mutans (S)”. Also, the MIC entry was “E. coli, 50 μM” against E. coli [4] and “S. pneumoniae, 50 μM” with S. pneumoniae [6]. Also, the Activities entry with microorganisms is “G B M”.
